In ChEMBL document CHEMBL6134911, “Broad Target Screening Reveals Abundance of FKBP12-Based Molecular Glues in Focused Libraries” (J Med Chem, 2025):
Calls of active or inactive are those of the source. The rule behind the calls is not given here.

Legend:
Homo sapiens [1] = species on record: Homo sapiens; test: Competitive molecular glue activity at fluorescein maleimide-labeled FKBP12 C22V/E108C mutant (unknown origin)/6 His-tagged BRD4 BD2 domain (unknown origin) assessed as ternary complex formation incubated for 30 mins in presence of FKBP12 ligand 18(S)-Me 29 by fluorescence polarization analysis
[2] = Competitive molecular glue activity at fluorescein maleimide-labeled FKBP12 C22V/E108C mutant (unknown origin)/6 His-tagged BRD4 BD2 domain (unknown origin) assessed as ternary complex formation by measuring dissociation constant incubated for 30 mins by fluorescence polarization analysis; set-up: species or system Homo sapiens
Homo sapiens [3] = species on record: Homo sapiens; test: Competitive molecular glue activity at fluorescein maleimide-labeled FKBP12 C22V/E108C mutant (unknown origin)/6 His-tagged BRD4 BD2 domain (unknown origin) assessed as ternary complex formation incubated for 30 mins in presence of JQ1 by fluorescence polarization analysis
[4] = target: Bromodomain-containing protein 4 (Homo sapiens) (UniProt O60885); test: Displacement of fluorescent JQ1 from BRD4 BD2 (unknown origin) incubated for 30 mins by fluorescence polarization analysis
Homo sapiens [5] = species on record: Homo sapiens; test: Competitive molecular glue activity at fluorescein maleimide-labeled FKBP12 C22V/E108C mutant (unknown origin)/6 His-tagged BRD4 BD1 domain (unknown origin) assessed as ternary complex formation incubated for 30 mins by fluorescence polarization analysis
Homo sapiens [6] = species on record: Homo sapiens; test: Competitive molecular glue activity at Strep-tagged EGFP-FKBP12 (unknown origin) extracted from Escherichia coli BL21 gold cells/6 His-tagged MBP-STAT4 (unknown origin) assessed as ternary complex formation incubated for 30 mins by HTRF assay
Homo sapiens [7] = species on record: Homo sapiens; test: Competitive molecular glue activity at fluorescein maleimide-labeled FKBP12 C22V/E108C mutant (unknown origin)/6 His-tagged MBP-STAT4 (unknown origin) assessed as ternary complex formation incubated for 30 mins by fluorescence polarization analysis
Homo sapiens [8] = species on record: Homo sapiens; test: Competitive molecular glue activity at fluorescein maleimide-labeled FKBP12 C22V/E108C mutant (unknown origin)/6 His-tagged MBP-STAT4 (unknown origin) assessed as ternary complex formation incubated for 30 mins in presence of FKBP12 ligand 18(S)-Me 29 by fluorescence polarization analysis
Homo sapiens [9] = species on record: Homo sapiens; test: Competitive molecular glue activity at fluorescein maleimide-labeled FKBP12 C22V/E108C mutant (unknown origin)/6 His-tagged PTPRN (unknown origin) assessed as ternary complex formation incubated for 30 mins in presence of FKBP12 ligand 18(S)-Me 29 by fluorescence polarization analysis
Homo sapiens [10] = species on record: Homo sapiens; test: Competitive molecular glue activity at Strep-tagged EGFP-FKBP12 (unknown origin) extracted from Escherichia coli BL21 gold cells/6 His-tagged PTPRN (unknown origin) assessed as ternary complex formation incubated for 30 mins by HTRF assay
Homo sapiens [11] = species on record: Homo sapiens; test: Competitive molecular glue activity at fluorescein maleimide-labeled FKBP12 C22V/E108C mutant (unknown origin)/6 His-tagged PTPRN (unknown origin) assessed as ternary complex formation incubated for 30 mins by fluorescence polarization analysis
Homo sapiens [12] = species on record: Homo sapiens; test: Competitive molecular glue activity at Strep-tagged EGFP-FKBP12 (unknown origin) extracted from Escherichia coli BL21 gold cells/6 His-tagged BRD4 BD2 domain (unknown origin) assessed as ternary complex formation incubated for 30 mins by HTRF assay
Homo sapiens [13] = species on record: Homo sapiens; test: Competitive molecular glue activity at fluorescein maleimide-labeled FKBP12 C22V/E108C mutant (unknown origin)/6 His-tagged BRD4 BD2 domain (unknown origin) assessed as ternary complex formation incubated for 30 mins by fluorescence polarization analysis

In the case of `C=C[C@@H]1CN(Cc2cn(-c3ccc(OC)c(OC)c3)nn2)C(=O)[C@@H]2CCC[C@H]1N2S(=O)(=O)c1cc(Cl)cc(Cl)c1`, the Activity (Homo sapiens [1]) is reported as “inactive”, the Kd [2] is reported as 27 µM and the Activity (Homo sapiens [3]) is reported as “inactive”. For the same molecule, the Activity [4] was “inactive” and the Activity (Homo sapiens [5]) was “inactive”.
Molecule `C=C[C@@H]1CN(Cc2cn(-c3ccc(C(C)=O)c(OC)c3)nn2)C(=O)[C@@H]2CCC[C@H]1N2S(=O)(=O)c1cc(Cl)cc(Cl)c1` has a Kd [2] of 22 µM.
Molecule `C=C[C@@H]1CN(Cc2cn(-c3ccc(OC(C)C)cc3)nn2)C(=O)[C@@H]2CCC[C@H]1N2S(=O)(=O)c1cc(Cl)cc(Cl)c1` has a Kd [2] of 144 µM.
With `C=C[C@@H]1CN(Cc2cn(-c3ccc(C(C)=O)cc3)nn2)C(=O)[C@@H]2CCC[C@H]1N2S(=O)(=O)c1cc(Cl)cc(Cl)c1` the Kd [2] was 47 µM.
With `C=C[C@H]1CN(Cc2ccccn2)C(=O)[C@@H]2CCC[C@H]1N2S(=O)(=O)c1cc(-c2ccccc2)c2nc(-c3ccccc3)sc2c1` the Activity (Homo sapiens [6]) was “Dose-dependent-effect”, the Activity (Homo sapiens [7]) was “Dose-dependent-effect” and the Activity (Homo sapiens [8]) was “inactive”.
In the case of `COc1ccc(CC[C@@H](OC(=O)[C@@H]2CCCCN2S(=O)(=O)c2cc3c(c([N+](=O)[O-])c2)OCC3)c2cccc(CC(=O)O)c2)cc1OC`, the Activity (Homo sapiens [9]) is reported as “inactive”, the Activity (Homo sapiens [10]) is reported as “Dose-dependent-effect” and the Activity (Homo sapiens [11]) is reported as “Dose-dependent-effect”.
For `C=C[C@@H]1CN(Cc2cn(-c3ccc(OC)c(Cl)c3)nn2)C(=O)[C@@H]2CCC[C@H]1N2S(=O)(=O)c1cc(Cl)cc(Cl)c1`, the Kd [2] was 83 µM.
In the case of `C=C[C@@H]1CN(Cc2cn(-c3ccc(OC)cc3)nn2)C(=O)[C@@H]2CCC[C@H]1N2S(=O)(=O)c1cc(Cl)cc(Cl)c1`, the Activity (Homo sapiens [12]) is reported as “Dose-dependent-effect”, the Activity (Homo sapiens [13]) is reported as “Dose-dependent-effect” and the Activity (Homo sapiens [1]) is reported as “inactive”. It also gave a Kd [2] of 394 µM.
In the case of `C=C[C@@H]1CN(Cc2cn(-c3ccc(N(C)C)cc3)nn2)C(=O)[C@@H]2CCC[C@H]1N2S(=O)(=O)c1cc(Cl)cc(Cl)c1`, the Kd [2] is reported as 115 µM.
In the case of `C=C[C@@H]1CN(Cc2cn(-c3ccc4[nH]ncc4c3)nn2)C(=O)[C@@H]2CCC[C@H]1N2S(=O)(=O)c1cc(Cl)cc(Cl)c1`, the Kd [2] is reported as 96 µM.
In the case of `C=C[C@@H]1CN(Cc2cn(-c3cc(OC)c(OC)c(OC)c3)nn2)C(=O)[C@@H]2CCC[C@H]1N2S(=O)(=O)c1cc(Cl)cc(Cl)c1`, the Kd [2] is reported as > 500 µM.
